# Measurements published in patent EP0091090A2, “Bipyridine substituted imidazolidene copper complex and its use in food-producing animals, and bipyridine, 2,2'-(2-imidazolidinylidene) di-copper complex and use in animals” (INTERNATIONAL MINERALS & CHEMICAL CORPORATION, priority 1982, dated 1983).
# Where “and” joins values, the source holds several entries; their conditions need not be identical. Equal entries are not always repeated. Where two headings read alike, the source gives them in different places.
# Legend:
# [1] = system: rumen fluid batch culture; assay: Batch rumen VFA and gas production screen (Example 8); type: cell-based, steers
# Protocol: The above Formula II composition was tested to determine its effectiveness as a feed additive for ruminants. The initial tests were in rumen fluid batch culture systems to determine the effect of the compound on volatile fatty acid/methane ratios (VFA/CH4).
# A 50/50.mixture of ground corn and ground alfalfa was used as the substrate for the subject rumen fluid batch culture test. The compound (Formula II) was present in the rumen fluid at 75 ppm.
# On day 1, rumen fluid was obtained from mature fistulated steers on 50/50 concentrate/roughage diets. The rumen fluid (RF) was strained through three layers of gauze cloth and equilibrated with C02 gas. Wheaton serum vials (125 ml) were prepared ahead with 20 ml continuous batch buffer and 100 mg 50/50 ground corn/ground alfalfa. Controls and compounds (dissolved in acetone) were set up according to indicated levels. The vials were kept under C02 gas until 20 ml of the strained RF was added. The vials were sealed and incubated at 39°C for 24 hours in a hot water bath. On successive days, gas samples (0.1 ml) were drawn for gas chromatography analysis before transferring 20 ml of the batch culture to another vial containing 20 ml of buffer, 100 mg substrate, and the corresponding compound. The remaining 20 ml was inoculated with 2 ml 6N HCl and centrifuged at 15,000 rpm for 15 minutes. Ether extracts were prepared for volatile fatty acid (VFA) analysis. Some minor adjustments were made in the temperatures on the Hewlett-Packard 5750 Gas-Liquid Chromatograph used for VFA analysis when the glass column used was changed from 1/2 inch diameter to 1J8 inch diameter.
# About 4 minutes was needed to record the sample.
# In the above tests, four control groups were run and the mean established.
# [2] = Chick rye diet test system (Example 6); type: in vivo; conditions: compared to positive control (penicillin or bacitracin)
# Description: The Formula III compound can be tested in a chick rye diet test system. […] Useful antibiotics for the positive control comparison are penicillin or bacitracin.
# rumen microflora = assay: Batch culture assay for the degradation of starch (Example 3); type: cell-based, steers
# Description: The subject Formula ^IV compound was also compared to monensin in another rumen fluid batch culture test as set forth below. The test was designed to screen compounds for inhibition of starch breakdown by the rumen microflora. […] It is considered more desirable to avoid degradation of starch in the rumen so that it is passed on into the abomasum where it can be digested more efficiently. […] Test Procedure: Animals - Mature fistulated steers were maintained on concentrate, roughage, or concentrate/ roughage (50/50) rations. Animals were fed twice daily at 8:00 A.M. and 4:00 P.M.
# Culture Assays - Approximately two liters of rumen fluid were collected from fistulated animals with the use of a hand pump. The rumen fluid, collected in a stoppered flask, was then immediately taken to the laboratory for processing. Samples were taken at 8:00 A.M. just prior to the first feeding or at 1:00 P.M. (ca. 4-5 hours after the first feeding). Rumen fluid was strained through six layers of cotton gauze cloth into a flask that was flushed with C02 gas. The filtrate was centrifuged for 5 minutes at 100 rpm in a Sorvall centrifuge to remove large particulate material. The supernatant was again passed through six layers of gauze into a flask under C02 gas and stoppered.
# Batch Culture Assay for the Degradation of Starch - Twenty-five ml of rumen fluid prepared as above was added to serum vials (Wheaton Glass, 100 ml capacity) containing 0.25-1.00% final concentration starch as an energy substrate in 25 ml batch culture assay buffer. The serum vials were sealed under C02 gas phase, and incubations were carried out for 20-24 hours at 39°C on a New Brunswick rotary shaker (250 rpm). Each experimental vial was done in triplicate. The corn starch used in degradation experiments was previously washed with distilled water several times, filtered through an 8 micron (47 mm) Millipore filter, and dried at 90°C for 24 hours.
# At intervals of 0 and 24 hours, the entire contents in vials were centrifuged at 250 rpm for 5 minutes. The supernatants were carefully removed with a pipet and the remaining "starch pellets" resuspended in water and passed through borosilicate glass microfiber prefilters (Millipore AP 20-047-00). Filters were dried in an oven for 24 hours at 90°C, cooled and then weighed. The amount of starch remaining after 24 hours' incubation was compared with the amount present at 0 hours and the per cent of substrate degraded calculated.
# [3] = system: rumen fluid batch culture; assay: Rumen fluid batch culture test: volatile fatty acid, gas (CH4 + H2), protein and amino acid accumulation (Example 2); type: cell-based, steers
# Protocol: The above Formula IV composition was tested to determine its effectiveness as a feed additive for ruminants. The initial tests were in rumen fluid batch culture systems to determine the effect of the compound on volatile fatty acid/methane ratios (VFA/CH4). […] Test Procedure: A 50/50 mixture of ground corn and ground alfalfa was used as the substrate for the subject rumen fluid batch culture test. The compound (Formula IV ) was present in the rumen fluid in three separate test samples at 8.33, 25 and 75 ppm, respectively. On day 1, rumen fluid was obtained from mature fistulated steers on 50/50 concentrate/roughage diets. The rumen fluid (RF) was strained through three layers of gauze cloth and equilibrated with C02 gas. Wheaton serum vials (125 ml) were prepared ahead with 20 ml continuous batch buffer and 100 mg 50/50 ground corn/ground alfalfa. Controls and compounds (dissolved in acetone) were set up according to desired levels. The vials were kept under C02 gas until 20 ml of the strained RF was added. The vials were sealed and incubated at 39°C for 24 hours in a hot water bath. On successive days, gas samples (0.1 ml) were drawn for gas chromatography analysis before transferring 20 ml of the batch culture to another vial containing 20 ml of buffer, 100 mg substrate, and the corresponding compound. The remaining 20 ml was inoculated with 2 ml 6N HC1 and centrifuged at 15,000 rpm for 15 minutes. Ether extracts were prepared for volatile fatty acid (VFA) analysis. Some minor adjustments were made in the termperatures on the Hewlett-Packard 5750 Gas-Liquid Chromatograph used for VFA analysis when the glass column used was changed from 1/4 inch diameter to 1/8 inch diameter. Injection Port = 220°C Column Oven = 170°C Flame Detector = 250°C Only 4 minutes was needed to record the sample instead of the previous 7 minutes.
# [4] = 75 ppm, single runs of duplicate
compound,measurement,setting,value
"Pyridine, 2,2'-(2-imidazolidinyl- idene)di-, compound with CuCl2 (1/1) [Formula II Compound]",acetate production,[1]; 75 ppm,"depressed acetate production compared to the negative control, and was comparable to monensin"
same,"CH4 (%), Average","[1]; 75 ppm, average",11.0%
same,"H2 (%), Average","[1]; 75 ppm, average",0.0%
same,"CH4, Percent Change","[1]; 75 ppm, change versus control average, 1440 min",-6.0%
same,"Acetate, Mean","[1]; 75 ppm, mean of duplicate",8.0 Mu Moles/ml
same,"Butyrate, Mean","[1]; 75 ppm, mean of duplicate",9.6 Mu Moles/ml
same,"Propionic, Mean","[1]; 75 ppm, mean of duplicate",14.8 Mu Moles/ml
same,"Total, Mean","[1]; 75 ppm, mean of duplicate",32.4 Mu Moles/ml
same,CH4 (%),"[1]; 75 ppm, single runs",11.2% and 10.8%
same,H2 (%),"[1]; 75 ppm, single runs",0.0%
same,Acetate,[1]; [4],6.8 Mu Moles/ml and 9.2 Mu Moles/ml
same,Butyrate,[1]; [4],8.9 Mu Moles/ml and 10.2 Mu Moles/ml
same,Propionic,[1]; [4],14.6 Mu Moles/ml and 15.0 Mu Moles/ml
same,Total,[1]; [4],38.4 Mu Moles/ml and 34.4 Mu Moles/ml
same,activity in rumen fluid batch culture tests,[1]; compared with iron and nickel salts of Formula I,best activity
same,propionate production,[1]; expected in tests to establish optimum dosage level,favorable shift to increased propionate production
same,activity in chick rye diet test,[2],promising activity
"CC[C@@H](C(=O)[C@@H](C)[C@@H](O)[C@H](C)CCc1ccc(C)c(O)c1C(=O)O)[C@H]1O[C@](CC)([C@H]2CC[C@](O)(CC)[C@H](C)O2)C[C@@H]1C [lasalocid, reference compound]",effect on starch fermentation,rumen microflora; 25 ppm,neither monensin or lasalocid had any effect
"CC[C@@]1([C@@H]2O[C@@H]([C@H]3O[C@@](O)(CO)[C@H](C)C[C@@H]3C)C[C@@H]2C)CC[C@H]([C@]2(C)CC[C@]3(C[C@H](O)[C@@H](C)[C@@H]([C@@H](C)[C@@H](OC)[C@H](C)C(=O)O)O3)O2)O1 [Monensin, reference compound]",AA,[3],0.51 µmol/mL and 0.28 µmol/mL and 0.29 µmol/mL and 0.34 µmol/mL and 0.30 µmol/mL and 0.44 µmol/mL
same,CH4 produced on Day 10,[3],49
same,Caloric Value of CH4,[3],10.33
same,Caloric Value of H2,[3],0
same,Caloric Value of HAc,[3],105.04
same,Caloric Value of HBu,[3],50.34
same,Caloric Value of HFo,[3],0.98
same,Caloric Value of HPr,[3],180.46
same,Caloric Value of HiBu,[3],5.11
same,Caloric Value of HiVal,[3],2.17
same,"Caloric Value, Total (VFA's)",[3],344.10
same,Gross Cal Remaining in Feed,[3],364.76 cal
same,H2,[3],0 µ Moles
same,H2 produced on Day 10,[3],0
same,HAc (acetate) produced on Day 10,[3],501.6
same,HBu (butyrate) produced on Day 10,[3],96.8
same,HFo (formate) produced on Day 10,[3],15.60
same,HPr (propionate) produced on Day 10,[3],494.4
same,HiBu (isobutyrate) produced on Day 10,[3],14.0
same,HiVal (isovalerate) produced on Day 10,[3],3.2
same,Total VFA's produced on Day 10,[3],"1,125.6"
same,effect on starch fermentation,rumen microflora,neither monensin or lasalocid had any effect
same,Acetate,[1],7.2 Mu Moles/ml and 5.6 Mu Moles/ml
same,"Acetate, Mean",[1],6.4 Mu Moles/ml
same,Butyrate,[1],7.8 Mu Moles/ml and 7.9 Mu Moles/ml
same,"Butyrate, Mean",[1],7.6 Mu Moles/ml
same,CH4 (%),[1],5.6% and 6.2%
same,"CH4 (%), Average",[1],5.8%
same,"CH4, Percent Change",[1],-49.4%
same,H2 (%),[1],0.0%
same,"H2 (%), Average",[1],0.0%
same,Propionic,[1],20.7 Mu Moles/ml and 18.7 Mu Moles/ml
same,"Propionic, Mean",[1],19.7 Mu Moles/ml
same,Total,[1],32.2 Mu Moles/ml
same,"Total, Mean",[1],38.8 Mu Moles/ml
